Each molecule was assayed against T1, 5-HT transporter (Rattus norvegicus, UniProt P31652) (assay: 5-HT uptake inhibition in rat brain synaptosomes (medulla and pons), [3H]-5-HT).
T1 construct: from tissue; host or cells: rat brain synaptosomes (P2 fraction) from medulla and pons
Assay type: biochemical
Text: a) Method for Determining Noradrenalin and 5-HT Uptake Inhibition:
Synaptosomes from rat brain regions are freshly isolated for in vitro studies, as described in the publication “The isolation of nerve endings from brain” by E. G. Gray and V. P. Whittaker, J. Anatomy 96, pages 79-88, 1962. The corresponding literature description is hereby introduced as a reference and is deemed to be part of the disclosure.
The tissue (hypothalamus for the determination of noradrenalin uptake inhibition and medulla and pons for the determination of 5-HT uptake inhibition) is homogenised in ice-cooled 0.32 M sucrose (100 mg of tissue/1 mL) in a glass homogeniser with Teflon pestle using five complete up and down strokes at 840 revolutions/minute.
The homogenate is centrifuged at 4° C. for 10 minutes at 1000 g. After subsequent centrifugation at 17000 g for 55 minutes, the synaptosomes (P2 fraction) are obtained, which are resuspended in 0.32 M […] (0.5 mL/100 mg of original weight).
The particular uptake is measured in a 96-well microtitre plate. The volume is 250 μl and the incubation proceeds at room temperature (approx. 20-25° C.) under an O2 atmosphere.
The incubation time is 7.5 minutes for [^3H]-NA and 5 minutes for [^3H]-5-HT. The 96 samples are then filtered through a Unifilter GF/B® microtitre plate (Packard) and washed with 200 mL of incubated buffer using a “Brabdel MPXRI-96T Cell-Harvester”. The Unifilter GF/B plate is dried for 1 hour at 55° C. The plate is then sealed with a Back Seal® (Packard) and 35 μl of scintillation fluid are added per well (Ultima Gold®, Packard). After sealing with a top Seal® (Packard) and establishing an equilibrium (around 5 hours), radioactivity is determined in a “Trilux 1450 Microbeta” (Wallac).
The quantity of protein used in the above determination corresponds to the values known from the literature, as for example described in “Protein measurement with the folin phenol reagent”, Lowry et al., J. Biol. Chem., 193, 265-275, 1951.
A detailed description of the method may additionally be found in the literature, for example in M. Ch. Frink, H.-H. Hennies, W. Engelberger, M. Haurand and B. Wilffert (1996) Arzneim.-Forsch./Drug Res. 46 (III), 11, 1029-1036.

T1 sequence (P31652 whole entry): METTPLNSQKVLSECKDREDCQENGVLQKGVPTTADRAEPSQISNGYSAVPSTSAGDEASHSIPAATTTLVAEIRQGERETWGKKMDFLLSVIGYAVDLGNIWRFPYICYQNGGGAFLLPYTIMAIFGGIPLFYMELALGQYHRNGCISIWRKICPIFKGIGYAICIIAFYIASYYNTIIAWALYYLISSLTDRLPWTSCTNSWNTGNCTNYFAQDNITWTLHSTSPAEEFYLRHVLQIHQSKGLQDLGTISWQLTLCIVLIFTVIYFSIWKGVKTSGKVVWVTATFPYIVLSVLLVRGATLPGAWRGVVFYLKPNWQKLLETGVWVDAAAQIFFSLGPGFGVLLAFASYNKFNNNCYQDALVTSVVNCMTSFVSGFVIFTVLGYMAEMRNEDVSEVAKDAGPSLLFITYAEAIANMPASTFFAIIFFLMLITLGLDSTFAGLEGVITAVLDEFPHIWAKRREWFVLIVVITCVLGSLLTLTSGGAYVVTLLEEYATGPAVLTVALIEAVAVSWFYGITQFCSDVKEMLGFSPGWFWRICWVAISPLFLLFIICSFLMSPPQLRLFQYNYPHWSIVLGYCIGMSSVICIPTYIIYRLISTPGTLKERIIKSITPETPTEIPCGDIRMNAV

Q: Which inhibition at 10 µM does the source give for N#Cc1ccccc1CN1CC2(CCN(C(=O)CC3(CC(=O)O)CCCC3)CC2)OC1=O [Example 71, (1-{2-[3-(2-cyanobenzyl)-2-oxo-1-oxa-3,8-diazaspiro[4.5]dec-8-yl]-2-oxoethyl}cyclopentyl)acetic acid] here?
A: 62%

Q: How did the inhibition at 10 µM turn out when O=C(O)CC1(CC(=O)N2CCC3(CC2)CN(Cc2ccc(F)c(F)c2)C(=O)O3)CCCC1 [Example 72, (1-{2-[3-(3,4-difluorobenzyl)-2-oxo-1-oxa-3,8-diazaspiro[4.5]dec-8-yl]-2-oxoethyl}cyclopentyl)acetic acid] was run?
A: 45%

Q: Which inhibition at 10 µM does the source give for CC(CC(=O)O)CC(=O)N1CCC2(CC1)CN(Cc1ccccc1-c1ccccc1)C(=O)O2 (centres unmarked) [Example 73, 5-(3-biphenyl-2-ylmethyl-2-oxo-1-oxa-3,8-diazaspiro[4.5]dec-8-yl)-3-methyl-5-oxopentanoic acid] here?
A: 57%

Q: With COc1ccc([N+](=O)[O-])cc1CN1CC2(CCN(CC(=O)Nc3cc(C)nn3C)CC2)OC1=O [Example 76, N-(2,5-dimethyl-2H-pyrazol-3-yl)-2-[3-(2-methoxy-5-nitrobenzyl)-2-oxo-1-oxa-3,8-diazaspiro[4.5]dec-8-yl]acetamide] as the molecule, how does the inhibition at 10 µM read?
A: 51%

Q: How did the inhibition at 10 µM turn out when O=C1OC2(CCN(Cc3ccc(OC(F)(F)F)cc3)CC2)CN1Cc1ccc(F)c(F)c1 [Example 81, 3-(3,4-difluorobenzyl)-8-(4-trifluoromethoxybenzyl)-1-oxa-3,8-diazaspiro[4.5]decan-2-one] was run?
A: 75%

Q: Which inhibition at 10 µM does the source give for N#Cc1ccccc1CN1CC2(CCN(Cc3ccc(Cl)cc3)CC2)OC1=O [Example 82, 2-[8-(4-chlorobenzyl)-2-oxo-1-oxa-3,8-diazaspiro[4.5]dec-3-ylmethyl]benzonitrile] here?
A: 56%

Q: For Cc1ccc2ccccc2c1CN1CCC2(CC1)CN(Cc1ccccc1C(F)(F)F)C(=O)O2 [Example 83, 8-(2-methylnaphthalen-1-ylmethyl)-3-(2-trifluoromethylbenzyl)-1-oxa-3,8-diazaspiro[4.5]decan-2-one], which inhibition at 10 µM is on record?
A: 41%

Q: N#Cc1ccccc1CN1CC2(CCN(Cc3csc4ccc(Cl)cc34)CC2)OC1=O [Example 84, 2-[8-(5-chlorobenzo[b]thiophen-3-ylmethyl)-2-oxo-1-oxa-3,8-diazaspiro[4.5]dec-3-ylmethyl]benzonitrile] was tested. Which inhibition at 10 µM did it give?
A: 62%

Q: Which inhibition at 10 µM does the source give for O=C(CN1CCC2(CC1)CN(Cc1ccc(SC(F)(F)F)cc1)C(=O)O2)Nc1csc(C(F)(F)F)c1-c1ccccc1 [Example 85, 2-[2-oxo-3-(4-trifluoromethylsulfanylbenzyl)-1-oxa-3,8-diazaspiro[4.5]dec-8-yl]-N-(4-phenyl-5-trifluoromethylthiophen-3-yl)acetamide] here?
A: 90%

Q: COc1ccc([N+](=O)[O-])cc1CN1CC2(CCN(Cc3cccc([N+](=O)[O-])c3)CC2)OC1=O [Example 88, 3-(2-methoxy-5-nitrobenzyl)-8-(3-nitrobenzyl)-1-oxa-3,8-diazaspiro[4.5]decan-2-one] was tested. Which inhibition at 10 µM did it give?
A: 70%

Q: For Cc1ccc(CN2CC3(CCN(Cc4ccc5ccccc5c4Br)CC3)OC2=O)cc1 [Example 90, 8-(1-bromonaphthalen-2-ylmethyl)-3-(4-methylbenzyl)-1-oxa-3,8-diazaspiro[4.5]decan-2-one], which inhibition at 10 µM is on record?
A: 77%

Q: For CC(=O)Nc1ccc(C(=O)N2CCC3(CC2)CN(Cc2cccc(C#N)c2)C(=O)O3)cc1 [Example 91, N-{4-[3-(3-cyanobenzyl)-2-oxo-1-oxa-3,8-diazaspiro[4.5]decane-8-carbonyl]phenyl}acetamide], which inhibition at 10 µM is on record?
A: 68%

Q: Which inhibition at 10 µM does the source give for CCSc1ncccc1C(=O)N1CCC2(CC1)CN(Cc1cc(C)cc(C)c1)C(=O)O2 [Example 99, 3-(3,5-dimethylbenzyl)-8-(2-ethylsulfanylpyridine-3-carbonyl)-1-oxa-3,8-diazaspiro[4.5]decan-2-one] here?
A: 73%

Q: With Cc1cc(C)cc(CN2CC3(CCN(C(=O)c4c(-c5ccccc5Cl)noc4C)CC3)OC2=O)c1 [Example 101, 8-[3-(2-chlorophenyl)-5-methylisoxazole-4-carbonyl]-3-(3,5-dimethylbenzyl)-1-oxa-3,8-diazaspiro[4.5]decan-2-one] as the molecule, how does the inhibition at 10 µM read?
A: 84%

Q: With CCc1ccc(CS(=O)(=O)N2CCC3(CC2)CN(Cc2cccc(Br)c2)C(=O)O3)cc1 [Example 102, 3-(3-bromobenzyl)-8-(4-ethylbenzylsulfonyl)-1-oxa-3,8-diazaspiro[4.5]decan-2-one] as the molecule, how does the inhibition at 10 µM read?
A: 67%

Q: For CCCCOc1ccc(CS(=O)(=O)N2CCC3(CC2)CN(Cc2cc(C)cc(C)c2)C(=O)O3)cc1 [Example 103, 8-(4-butoxybenzylsulfonyl)-3-(3,5-dimethylbenzyl)-1-oxa-3,8-diazaspiro[4.5]decan-2-one], which inhibition at 10 µM is on record?
A: 83%

Q: For CC(=O)OC(C(=O)N1CCC2(CC1)CN(Cc1cc(C)cc(C)c1)C(=O)O2)c1ccccc1 (centres unmarked) [Example 105, acetic acid 2-[3-(3,5-dimethylbenzyl)-2-oxo-1-oxa-3,8-diazaspiro[4.5]dec-8-yl]-2-oxo-1-phenylethyl ester], which inhibition at 10 µM is on record?
A: 74%

Q: N#Cc1ccc(CN2CC3(CCN(C(=O)C4CC4c4ccccc4)CC3)OC2=O)cc1 (centres unmarked) [Example 106, 4-[2-oxo-8-(2-phenylcyclopropanecarbonyl)-1-oxa-3,8-diazaspiro[4.5]dec-3-ylmethyl]benzonitrile] was tested. Which inhibition at 10 µM did it give?
A: 63%

Q: For COc1ccc(OC)c(CS(=O)(=O)N2CCC3(CC2)CN(Cc2cc(C)cc(C)c2)C(=O)O3)c1 [Example 107, 8-(2,5-dimethoxybenzylsulfonyl)-3-(3,5-dimethylbenzyl)-1-oxa-3,8-diazaspiro[4.5]decan-2-one], which inhibition at 10 µM is on record?
A: 76%

Q: For Cc1cc(C)cc(CN2CC3(CCN(C(=O)c4ccccc4Cl)CC3)OC2=O)c1 [Example 108, 8-(2-chlorobenzoyl)-3-(3,5-dimethylbenzyl)-1-oxa-3,8-diazaspiro[4.5]decan-2-one], which inhibition at 10 µM is on record?
A: 77%

Q: Which inhibition at 10 µM does the source give for Cc1ccc(CS(=O)(=O)NC(Cc2ccccc2)C(=O)N2CCC3(CC2)CN(Cc2cccc(C#N)c2)C(=O)O3)cc1 (centres unmarked) [Example 110, N-{1-benzyl-2-[3-(3-cyanobenzyl)-2-oxo-1-oxa-3,8-diazaspiro[4.5]dec-8-yl]-2-oxoethyl}-4-methylbenzylsulfonamide] here?
A: 64%

Q: For CCSc1ncccc1C(=O)N1CCC2(CC1)CN(Cc1cccc(OC)c1)C(=O)O2 [Example 111, 8-(2-ethylsulfanylpyridine-3-carbonyl)-3-(3-methoxybenzyl)-1-oxa-3,8-diazaspiro[4.5]decan-2-one], which inhibition at 10 µM is on record?
A: 71%

Q: How did the inhibition at 10 µM turn out when COc1cccc(CN2CC3(CCN(C(=O)c4ccc(OC)cc4OC)CC3)OC2=O)c1 [Example 112, 8-(2,4-dimethoxybenzoyl)-3-(3-methoxybenzyl)-1-oxa-3,8-diazaspiro[4.5]decan-2-one] was run?
A: 66%

Q: For COc1cccc(CC(=O)N2CCC3(CC2)CN(Cc2cc(C)cc(C)c2)C(=O)O3)c1 [Example 113, 3-(3,5-dimethylbenzyl)-8-[2-(3-methoxyphenyl)acetyl]-1-oxa-3,8-diazaspiro[4.5]decan-2-one], which inhibition at 10 µM is on record?
A: 68%

Q: Which inhibition at 10 µM does the source give for COc1cc(C)c(CS(=O)(=O)N2CCC3(CC2)CN(Cc2cc(C)cc(C)c2)C(=O)O3)c(C)c1C [Example 114, 3-(3,5-dimethylbenzyl)-8-(4-methoxy-2,3,6-trimethylbenzylsulfonyl)-1-oxa-3,8-diazaspiro[4.5]decan-2-one] here?
A: 73%

Q: For N#Cc1ccc(CN2CC3(CCN(C(=O)c4ccc(-c5ccccc5)cc4)CC3)OC2=O)cc1 [Example 115, 4-[8-(biphenyl-4-carbonyl)-2-oxo-1-oxa-3,8-diazaspiro[4.5]dec-3-ylmethyl]benzonitrile], which inhibition at 10 µM is on record?
A: 84%
